Reference: PMC9934367, “Functional impact of subunit composition and compensation on Drosophila melanogaster nicotinic receptors–targets of neonicotinoids” (PLOS Genetics, 2023)

Tested on: D. melanogaster nAChRs
Test: Comparison of agonist activity between nAChRs expressed in X. laevis oocytes (one-way ANOVA, Kruskal-Wallis);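 on Difference of Imax values: Imax relative to maximal plateau response to ACh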
Type: cell-based
Method in brief: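 Agonist pEC50 values, derived from Hill fits of normalised peak currents, were compared across receptors by one-way ANOVA or Kruskal-Wallis. Currents came from oocytes clamped at −100 mV and perfused with atropine-containing saline (0.5 μM), 3–4 days after cRNA injection of fly nAChR subunits and co-factors.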

[1] = Dα1/Dα2/Dα3/Dβ1 vs. Dα1/Dα2/Dα3/Dβ1/Dβ2
[2] = Dα1/Dα2/Dα3/Dβ1 vs. Dα1/Dα2/Dβ1/Dβ2
[3] = Dα1/Dα2/Dα3/Dβ1 vs. Dα1/Dα3/Dβ1/Dβ2
[4] = Dα1/Dα2/Dα3/Dβ1 vs. Dα1/Dβ1/Dβ2
[5] = Dα1/Dα2/Dα3/Dβ1 vs. Dα2/Dα3/Dβ1/Dβ2
[6] = Dα1/Dα2/Dα3/Dβ1 vs. Dα3/Dβ1/Dβ2
[7] = Dα1/Dα2/Dβ1/Dβ2 vs. Dα1/Dα2/Dα3/Dβ1/Dβ2
[8] = Dα1/Dα2/Dβ1/Dβ2 vs. Dα2/Dα3/Dβ1/Dβ2
[9] = Dα1/Dα2/Dβ1 vs. Dα1/Dα2/Dα3/Dβ1
[10] = Dα1/Dα2/Dβ1 vs. Dα1/Dα2/Dα3/Dβ1/Dβ2
[11] = Dα1/Dα2/Dβ1 vs. Dα1/Dα2/Dβ1/Dβ2
[12] = Dα1/Dα2/Dβ1 vs. Dα1/Dα3/Dβ1/Dβ2
[13] = Dα1/Dα2/Dβ1 vs. Dα2/Dα3/Dβ1/Dβ2
[14] = Dα1/Dα3/Dβ1/Dβ2 vs. Dα1/Dα2/Dα3/Dβ1/Dβ2
[15] = Dα1/Dα3/Dβ1/Dβ2 vs. Dα1/Dα2/Dβ1/Dβ2
[16] = Dα1/Dα3/Dβ1/Dβ2 vs. Dα2/Dα3/Dβ1/Dβ2
[17] = Dα1/Dα3/Dβ1 vs. Dα1/Dα2/Dα3/Dβ1
[18] = Dα1/Dα3/Dβ1 vs. Dα1/Dα2/Dα3/Dβ1/Dβ2
[19] = Dα1/Dα3/Dβ1 vs. Dα1/Dα2/Dβ1/Dβ2
[20] = Dα1/Dα3/Dβ1 vs. Dα1/Dα3/Dβ1/Dβ2
[21] = Dα1/Dα3/Dβ1 vs. Dα2/Dα3/Dβ1/Dβ2
[22] = Dα1/Dβ1/Dβ2 vs. Dα1/Dα2/Dα3/Dβ1/Dβ2
[23] = Dα1/Dβ1/Dβ2 vs. Dα1/Dα2/Dβ1/Dβ2
[24] = Dα1/Dβ1/Dβ2 vs. Dα1/Dα3/Dβ1/Dβ2
[25] = Dα1/Dβ1/Dβ2 vs. Dα2/Dα3/Dβ1/Dβ2
[26] = Dα1/Dβ1 vs. Dα1/Dα2/Dα3/Dβ1/Dβ2
[27] = Dα2/Dα3/Dβ1/Dβ2 vs. Dα1/Dα2/Dα3/Dβ1/Dβ2
[28] = Dα2/Dα3/Dβ1 vs. Dα1/Dα2/Dα3/Dβ1
[29] = Dα2/Dα3/Dβ1 vs. Dα1/Dα2/Dα3/Dβ1/Dβ2
[30] = Dα2/Dα3/Dβ1 vs. Dα1/Dα2/Dβ1/Dβ2
[31] = Dα2/Dα3/Dβ1 vs. Dα1/Dα3/Dβ1/Dβ2
[32] = Dα2/Dα3/Dβ1 vs. Dα2/Dα3/Dβ1/Dβ2
[33] = Dα3/Dβ1/Dβ2 vs. Dα1/Dα2/Dα3/Dβ1/Dβ2
[34] = Dα3/Dβ1/Dβ2 vs. Dα1/Dα2/Dβ1/Dβ2
[35] = Dα3/Dβ1/Dβ2 vs. Dα1/Dα3/Dβ1/Dβ2
[36] = Dα3/Dβ1/Dβ2 vs. Dα2/Dα3/Dβ1/Dβ2
[37] = Dα3/Dβ1 vs. Dα1/Dα2/Dα3/Dβ1/Dβ2

## N#C/N=C1\SCCN1Cc1ccc(Cl)nc1 [Thiacloprid, thiacloprid]
Dα1/Dα2/Dα3/Dβ1/Dβ2 vs. Dα1/Dα2/Dα4/Dβ1/Dβ2
  Difference of pEC50 values, nAChRs compared: 0.17
Dα1/Dα2/Dα3/Dβ1/Dβ2 vs. Dα1/Dα2/Dβ1/Dβ2/Dβ3
  Difference of pEC50 values, nAChRs compared: -0.53
Dα1/Dα2/Dα3/Dβ1/Dβ2 vs. Dα1/Dα3/Dα4/Dβ1/Dβ2
  Difference of pEC50 values, nAChRs compared: -0.78
Dα1/Dα2/Dα3/Dβ1/Dβ2 vs. Dα1/Dα3/Dβ1/Dβ2/Dβ3
  Difference of pEC50 values, nAChRs compared: -1.45
Dα1/Dα2/Dα3/Dβ1/Dβ2 vs. Dα2/Dα3/Dα4/Dβ1/Dβ2
  Difference of pEC50 values, nAChRs compared: -0.81
Dα1/Dα2/Dα3/Dβ1/Dβ2 vs. Dα2/Dα3/Dβ1/Dβ2/Dβ3
  Difference of pEC50 values, nAChRs compared: -1.13
[1]
  Difference of Imax values: -0.012
  Difference of pEC50 values: 0.55
[2]
  Difference of Imax values: -0.027
  Difference of pEC50 values: 0.63
[3]
  Difference of Imax values: -0.060
  Difference of pEC50 values: -0.27
[4]
  Difference of Imax values: 0.004
  Difference of pEC50 values: -0.13
[5]
  Difference of Imax values: 0.030
  Difference of pEC50 values: -0.35
[6]
  Difference of Imax values: 0.025
  Difference of pEC50 values: -0.59
[7]
  Difference of Imax values: 0.015
  Difference of pEC50 values: -0.08
[8]
  Difference of Imax values: 0.057
  Difference of pEC50 values: -0.98
[9]
  Difference of Imax values: -0.022
  Difference of pEC50 values: -0.81
[10]
  Difference of Imax values: -0.034
  Difference of pEC50 values: -0.26
[11]
  Difference of Imax values: -0.049
  Difference of pEC50 values: -0.18
[12]
  Difference of Imax values: -0.082
  Difference of pEC50 values: -1.08
Dα1/Dα2/Dβ1 vs. Dα1/Dβ1/Dβ2
  Difference of Imax values: -0.018
  Difference of pEC50 values: -0.94
Dα1/Dα2/Dβ1 vs. Dα2/Dα3/Dβ1
  Difference of Imax values: -0.020
  Difference of pEC50 values: 0.00
[13]
  Difference of Imax values: 0.008
  Difference of pEC50 values: -1.16
Dα1/Dα2/Dβ1 vs. Dα3/Dβ1/Dβ2
  Difference of Imax values: 0.003
  Difference of pEC50 values: -1.40
[14]
  Difference of Imax values: 0.048
  Difference of pEC50 values: 0.82
[15]
  Difference of Imax values: 0.033
  Difference of pEC50 values: 0.90
[16]
  Difference of Imax values: 0.090
  Difference of pEC50 values: -0.08
[17]
  Difference of Imax values: 0.000
  Difference of pEC50 values: 0.34
[18]
  Difference of Imax values: -0.012
  Difference of pEC50 values: 0.89
Dα1/Dα3/Dβ1 vs. Dα1/Dα2/Dβ1
  Difference of Imax values: 0.022
  Difference of pEC50 values: 1.15
[19]
  Difference of Imax values: -0.027
  Difference of pEC50 values: 0.97
[20]
  Difference of Imax values: -0.060
  Difference of pEC50 values: 0.07
Dα1/Dα3/Dβ1 vs. Dα1/Dβ1/Dβ2
  Difference of Imax values: 0.004
  Difference of pEC50 values: 0.21
Dα1/Dα3/Dβ1 vs. Dα2/Dα3/Dβ1
  Difference of Imax values: 0.002
  Difference of pEC50 values: 1.15
[21]
  Difference of Imax values: 0.030
  Difference of pEC50 values: -0.01
Dα1/Dα3/Dβ1 vs. Dα3/Dβ1/Dβ2
  Difference of Imax values: 0.025
  Difference of pEC50 values: -0.25
[22]
  Difference of Imax values: -0.016
  Difference of pEC50 values: 0.68
[23]
  Difference of Imax values: -0.031
  Difference of pEC50 values: 0.76
[24]
  Difference of Imax values: -0.064
  Difference of pEC50 values: -0.14
[25]
  Difference of Imax values: 0.026
  Difference of pEC50 values: -0.22
Dα1/Dβ1/Dβ2 vs. Dα3/Dβ1/Dβ2
  Difference of Imax values: 0.021
  Difference of pEC50 values: -0.46
Dα1/Dβ1 vs. Dα1/Dα2/Dα3/Dβ1
  Difference of Imax values: 0.044
  Difference of pEC50 values: 0.06
[26]
  Difference of Imax values: 0.032
  Difference of pEC50 values: 0.61
Dα1/Dβ1 vs. Dα1/Dα2/Dβ1
  Difference of Imax values: 0.066
  Difference of pEC50 values: 0.87
Dα1/Dβ1 vs. Dα1/Dα2/Dβ1/Dβ2
  Difference of Imax values: 0.017
  Difference of pEC50 values: 0.69
Dα1/Dβ1 vs. Dα1/Dα3/Dβ1
  Difference of Imax values: 0.044
  Difference of pEC50 values: -0.28
Dα1/Dβ1 vs. Dα1/Dα3/Dβ1/Dβ2
  Difference of Imax values: -0.016
  Difference of pEC50 values: -0.21
Dα1/Dβ1 vs. Dα1/Dβ1/Dβ2
  Difference of Imax values: 0.048
  Difference of pEC50 values: -0.07
Dα1/Dβ1 vs. Dα2/Dα3/Dβ1
  Difference of Imax values: 0.046
  Difference of pEC50 values: 0.87
Dα1/Dβ1 vs. Dα2/Dα3/Dβ1/Dβ2
  Difference of Imax values: 0.074
  Difference of pEC50 values: -0.29
Dα1/Dβ1 vs. Dα3/Dβ1
  Difference of Imax values: 0.075
  Difference of pEC50 values: -0.01
Dα1/Dβ1 vs. Dα3/Dβ1/Dβ2
  Difference of Imax values: 0.069
  Difference of pEC50 values: -0.53
[27]
  Difference of Imax values: -0.042
  Difference of pEC50 values: 0.90
[28]
  Difference of Imax values: -0.002
  Difference of pEC50 values: -0.81
[29]
  Difference of Imax values: -0.014
  Difference of pEC50 values: -0.26
[30]
  Difference of Imax values: -0.029
  Difference of pEC50 values: -0.18
[31]
  Difference of Imax values: -0.062
  Difference of pEC50 values: -1.08
Dα2/Dα3/Dβ1 vs. Dα1/Dβ1/Dβ2
  Difference of Imax values: 0.002
  Difference of pEC50 values: -0.94
[32]
  Difference of Imax values: 0.028
  Difference of pEC50 values: -1.16
Dα2/Dα3/Dβ1 vs. Dα3/Dβ1/Dβ2
  Difference of Imax values: 0.023
  Difference of pEC50 values: -1.40
[33]
  Difference of Imax values: -0.037
  Difference of pEC50 values: 1.14
[34]
  Difference of Imax values: -0.052
  Difference of pEC50 values: 1.22
[35]
  Difference of Imax values: -0.085
  Difference of pEC50 values: 0.32
[36]
  Difference of Imax values: 0.005
  Difference of pEC50 values: 0.24
Dα3/Dβ1 vs. Dα1/Dα2/Dα3/Dβ1
  Difference of Imax values: -0.031
  Difference of pEC50 values: 0.07
[37]
  Difference of Imax values: -0.043
  Difference of pEC50 values: 0.62
Dα3/Dβ1 vs. Dα1/Dα2/Dβ1
  Difference of Imax values: -0.009
  Difference of pEC50 values: 0.88
Dα3/Dβ1 vs. Dα1/Dα2/Dβ1/Dβ2
  Difference of Imax values: -0.058
  Difference of pEC50 values: 0.70
Dα3/Dβ1 vs. Dα1/Dα3/Dβ1
  Difference of Imax values: -0.031
  Difference of pEC50 values: -0.27
Dα3/Dβ1 vs. Dα1/Dα3/Dβ1/Dβ2
  Difference of Imax values: -0.091
  Difference of pEC50 values: -0.20
Dα3/Dβ1 vs. Dα1/Dβ1/Dβ2
  Difference of Imax values: -0.027
  Difference of pEC50 values: -0.06
Dα3/Dβ1 vs. Dα2/Dα3/Dβ1
  Difference of Imax values: -0.029
  Difference of pEC50 values: 0.88
Dα3/Dβ1 vs. Dα2/Dα3/Dβ1/Dβ2
  Difference of Imax values: -0.001
  Difference of pEC50 values: -0.28
Dα3/Dβ1 vs. Dα3/Dβ1/Dβ2
  Difference of Imax values: -0.006
  Difference of pEC50 values: -0.52
